Measured values as given in patent publication US10675254B2, “Sphingosine-1-phosphate receptor agonist iontophoretic devices and methods of using the same” (Teikoku Seiyaku Co., Ltd., priority 2013, dated 2020).
Counter-ions that a name gives are not always drawn.

Experiments:
[1] = orally administered fingolimod HCl; cited from earlier work
[2] = In vitro iontophoretic delivery (active + passive) of Fingolimod HCl through epidermis of cadaver skin, Franz cell; format: in vitro ADME; conditions: for Active + passive Maximum delivery efficiency: donor 0.5% Fingolimod HCl solution, 8 hr; for Active + passive Maximum delivery efficiency / Active + passive Average delivery efficiency: 0.425 mA, 1.77 cm2; for Active + passive Average delivery efficiency: Ag anode/AgCl cathode, 48 hr
[3] = In vitro passive delivery of Fingolimod HCl through epidermis of cadaver skin, Franz cell (control); format: in vitro ADME; conditions: for Passive Maximum delivery efficiency: donor 0.5% Fingolimod HCl solution, 8 hr; for Passive Maximum delivery efficiency / Passive Average delivery efficiency: 1.77 cm2; for Passive Average delivery efficiency: 48 hr
Text: Passive delivery under the same experimental conditions was also concurrently investigated with the iontophoretic delivery and employed as a control. […] The maximum efficiency could be reached at a concentration of less than 0.25%. After 8 hr., some passive delivery of fingolimod HCl through the skin was also observed. This observation may have resulted from the imperfection of the skin and the experimental design. In this study, the presence of pores from the micro-sized damage of the epidermis during the preparation of the epidermal membrane and from the appendages (hair follicles, sweat ducts) might facilitate the contact between donor and receptor site and contribute to the passive delivery of fingolimod HCl solution into the receptor solution.

[4] = donor 0.25% fingolimod HCl solution, receptor 0.09% NaCl
[5] = donor 0.50% fingolimod HCl solution, receptor 0.09% NaCl
[6] = donor 0.75% fingolimod HCl solution, receptor 0.09% NaCl
[7] = donor 1% fingolimod HCl solution, receptor 0.09% NaCl
[8] = donor 2% fingolimod HCl solution, receptor 0.09% NaCl

For `CCCCCCCCc1ccc(CCC(N)(CO)CO)cc1` [Fingolimod HCl, 2-amino-2-[2-(4-octylphenyl)ethyl]propane-1,3-diol], the “peak to trough fluctuations, non-phosphorylated fingolimod” value [1] is listed as no more than 20%, the “peak to trough fluctuations, phosphorylated (active) form of fingolimod” value [1] is listed as no more than 45% and the “delivery efficiency (active+passive)” value ([2]; 0.25, 0.5, 0.75, 1 and 2% fingolimod HCl solutions, current 0.425 mA, area 1.77 cm^2) is listed as “about 4.5 μg/cm2/hr”. The “Active + passive Maximum delivery efficiency” value ([2]; Ag/AgCl electrodes, receptor 0.9% NaCl) was 5.0 ug/cm2/hr, the “Active + passive Maximum delivery efficiency” value ([2]; Zn/AgCl electrodes, receptor 0.09% NaCl) was 16.8 ug/cm2/hr and the “Active + passive Maximum delivery efficiency” value ([2]; Zn/AgCl electrodes, receptor 0.9% NaCl) was 5.8 ug/cm2/hr. The “Active + passive Average delivery efficiency” value [2, 4] was 4.8 ug/cm2/hr, the “Active + passive Average delivery efficiency” value [2, 5] was 5.0 ug/cm2/hr and the “Active + passive Average delivery efficiency” value [2, 6] was 4.5 ug/cm2/hr. The “Active + passive Average delivery efficiency” value [2, 7] was 4.5 ug/cm2/hr, the “Active + passive Average delivery efficiency” value [2, 8] was 4.2 ug/cm2/hr and the “Passive Maximum delivery efficiency” value ([3]; receptor 0.09% NaCl) was 0 ug/cm2/hr. The “Passive Maximum delivery efficiency” value ([3]; receptor 0.9% NaCl) was 0 ug/cm2/hr, the “Passive Average delivery efficiency” value [3, 4] was 0.8 ug/cm2/hr and the “Passive Average delivery efficiency” value [3, 5] was 0.9 ug/cm2/hr. For the same compound, the “Passive Average delivery efficiency” value [3, 6] was 0.8 ug/cm2/hr, the “Passive Average delivery efficiency” value [3, 7] was 0.7 ug/cm2/hr and the “Passive Average delivery efficiency” value [3, 8] was 1.4 ug/cm2/hr. For the same compound, the passive delivery detected ([3]; over an 8 h period, 0.5% Fingolimod HCl solution) was “no Fingolimod HCl delivery was detected”.
